Experimental findings from ChEMBL document CHEMBL1145987, “Structural determinants of selective thyromimetics” (J Med Chem, 2003) are described below.

Test [1] deals with T1, Thyroid hormone receptor beta (Homo sapiens, UniProt P10828).
T1 sequence (P10828 whole entry): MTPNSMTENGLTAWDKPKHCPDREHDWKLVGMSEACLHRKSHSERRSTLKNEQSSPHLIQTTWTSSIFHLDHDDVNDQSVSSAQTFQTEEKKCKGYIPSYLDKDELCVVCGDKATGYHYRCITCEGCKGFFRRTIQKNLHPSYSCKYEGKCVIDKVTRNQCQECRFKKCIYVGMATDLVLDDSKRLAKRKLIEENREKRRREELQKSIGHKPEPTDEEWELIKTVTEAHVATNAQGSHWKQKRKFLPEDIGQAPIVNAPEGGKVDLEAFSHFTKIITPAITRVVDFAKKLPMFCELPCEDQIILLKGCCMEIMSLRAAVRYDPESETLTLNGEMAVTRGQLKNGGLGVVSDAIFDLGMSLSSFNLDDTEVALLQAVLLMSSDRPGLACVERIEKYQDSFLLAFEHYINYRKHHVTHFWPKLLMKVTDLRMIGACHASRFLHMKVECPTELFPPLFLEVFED
Nature of the test: Binding affinity of compound was determined against thyroid hormone receptor beta 1.

In test [2] the target is T2, Thyroid hormone receptor alpha (Homo sapiens, UniProt P10827).
T2 sequence (P10827 whole entry): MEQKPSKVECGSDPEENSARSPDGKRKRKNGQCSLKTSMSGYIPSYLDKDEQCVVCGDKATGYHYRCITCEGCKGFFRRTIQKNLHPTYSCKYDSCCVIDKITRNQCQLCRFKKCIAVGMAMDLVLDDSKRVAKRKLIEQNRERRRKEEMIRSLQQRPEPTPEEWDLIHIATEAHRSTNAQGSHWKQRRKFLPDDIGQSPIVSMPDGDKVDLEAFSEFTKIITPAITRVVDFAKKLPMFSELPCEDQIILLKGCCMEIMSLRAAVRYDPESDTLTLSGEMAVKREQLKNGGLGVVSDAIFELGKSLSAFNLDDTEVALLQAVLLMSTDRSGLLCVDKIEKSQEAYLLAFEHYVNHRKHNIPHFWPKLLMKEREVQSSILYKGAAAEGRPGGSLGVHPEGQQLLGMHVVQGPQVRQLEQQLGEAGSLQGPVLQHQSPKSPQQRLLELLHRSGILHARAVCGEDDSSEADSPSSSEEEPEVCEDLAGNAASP
Nature of the test: Binding affinity of compound was determined against Thyroid hormone receptor alpha1.

As for `Cc1cc(OCC(=O)O)cc(C)c1Oc1ccc(O)c(C(C)C)c1`, the Kd (usually a measure of binding affinity in units of concentration) was determined as 0.36 nM in test [1] and 2.4 nM in test [2].
For `Cc1cc(CCC(=O)O)cc(C)c1Cc1ccc(O)c(C(C)C)c1`, in that order: 0.22 nM and 0.69 nM.
For `Cc1cc(C[C@H](N)C(=O)O)cc(C)c1Oc1ccc(O)c(C(C)C)c1`, in that order: 6.2 nM and 8.5 nM.
Turning to `Cc1cc(C[C@H](N)C(=O)O)cc(C)c1Cc1ccc(O)c(C(C)C)c1`, the Kd in test [1] came out at 1.26 nM; in test [2] it was 2.02 nM.
